Molecules are shown by their SMILES.

Holding throughout (experiment): Inhibitory effect on growth of human cancer cells (in vitro), WST-8
Common to all, as to assay type: cell-based

The subject of experiment [1] is human non-small cell lung cancer A549 cells. The following applies: Homo sapiens, A549, 96 h, 96 hours culture. In a few lines: (§1)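 Cells seeded at 1000 cells/well in RPMI1640 with 10% FBS, compounds added after overnight culture, then 96 h exposure. Viability by WST-8, about 1 h at 37 °C, 5% CO2, absorbance read at 450 nm.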
For experiment [2], the system named is human colorectal cancer HCT116 cells. The following applies: Homo sapiens, HCT-116, 96 h, 96 hours culture. The method in brief:
as §1

Experiment [3] deals with human colorectal cancer HT-29 cells. The following applies: Homo sapiens, HT-29, 96 h, 96 hours culture, read-out: IC50 (nM) HT29. The method in brief: as §1

As for `COc1ccc(C(=O)c2c(C(N)=O)[nH]c(-c3nnn(CCO)n3)c2C)cc1Br` [Compound 150, 3-(3-bromo-4-methoxybenzoyl)-5-(2-(2-hydroxyethyl)-2H-tetrazol-5-yl)-4-methyl-1H-pyrrole-2-carboxamide], the IC50 in experiment [1] is 192 nM; in experiment [2], 181 nM; in experiment [3], 145 nM.

On to `COc1ccc(C(=O)c2c(CO)[nH]c(-c3nnn(CCOC(C)=O)n3)c2C)cc1Br` [Compound 128, 2-(5-(4-(3-bromo-4-methoxybenzoyl)-5-(hydroxymethyl)-3-methyl-1H-pyrrol-2-yl)-2H-tetrazol-2-yl)ethyl acetate], for which the IC50 in experiment [1] was determined as 27.8 nM; in experiment [2] it was 22.4 nM; in experiment [3], 27.4 nM.

Consider `Cc1noc(-c2[nH]c(C)c(C(=O)c3cccc(Br)c3)c2C)n1` [Compound 271, (3-bromophenyl) (2,4-dimethyl-5-(3-methyl-1,2,4-oxadiazol-5-yl)-1H-pyrrol-3-yl)methanone], for which the IC50 in experiment [1] came out at 92.9 nM; in experiment [2] it was 50.4 nM; in experiment [3] it was 44.1 nM.

Regarding `Cc1[nH]c(-c2nnn(CCO)n2)c(C)c1C(=O)c1cccc(C2CC2)c1` [Compound 115, (3-cyclopropylphenyl)(5-(2-(2-hydroxyethyl)-2H-tetrazol-5-yl)-2,4-dimethyl-1H-pyrrol-3-yl)methanone], the IC50 in experiment [1] turned out to be 49.2 nM; in experiment [2] it was 41 nM; in experiment [3], 42.5 nM.

As for `Cc1[nH]c(-c2nnc(CCO)o2)c(C)c1C(=O)c1cccc(Br)c1` [Compound 205, (3-bromophenyl)(5-(5-(2-hydroxyethyl)-1,3,4-oxadiazol-2-yl)-2,4-dimethyl-1H-pyrrol-3-yl)methanone], the IC50 in experiment [1] came to 64.9 nM; in experiment [2] it was 37 nM; in experiment [3] it was 20.3 nM.

Regarding `COC(=O)c1[nH]c(-c2nnn(CCO)n2)c(C)c1C(=O)c1cccc(Br)c1` [Compound 137, methyl 3-(3-bromobenzoyl)-5-(2-(2-hydroxyethyl)-2H-tetrazol-5-yl)-4-methyl-1H-pyrrole-2-carboxylate], the IC50 in experiment [1] is 278 nM; in experiment [2], 186 nM; in experiment [3], 156 nM.

As to `Cc1[nH]c(-c2nnc(CO)o2)c(C)c1C(=O)c1cccc(Br)c1` [Compound 211, (3-bromophenyl) (5-(5-(hydroxymethyl)-1,3,4-oxadiazol-2-yl)-2,4-dimethyl-1H-pyrrol-3-yl)methanone], the IC50 in experiment [1] amounted to 183 nM; in experiment [2] it was 49.1 nM; in experiment [3], 44.1 nM.

As for `COc1ccc(C(=O)c2c(C3SCCCS3)[nH]c(-c3nnc(C4CC4)o3)c2C)cc1Br` [Compound 262, (3-bromo-4-methoxyphenyl)(5-(5-cyclopropyl-1,3,4-oxadiazol-2-yl)-2-(1,3-dithian-2-yl)-4-methyl-1H-pyrrol-3-yl)methanone], the IC50 is 905 nM in experiment [1], 902 nM in experiment [2] and 845 nM in experiment [3].

For `COc1ccc(C(=O)c2c(C=O)[nH]c(-c3nnn(CCO)n3)c2C)cc1Br` [Compound 125, 3-(3-bromo-4-methoxybenzoyl)-5-(2-(2-hydroxyethyl)-2H-tetrazol-5-yl)-4-methyl-1H-pyrrole-2-carboaldehyde], the IC50 came out at 45.8 nM in experiment [1], 93.2 nM in experiment [2] and 35.2 nM in experiment [3].

The values above are taken from patent publication US20140343017A1, “PYRROLE COMPOUND” (Kabushiki Kaisha Yakult Honsha, priority 2012, published 2014).
